Data from PubChem BioAssay AID194 (DTP/NCI, 2004).
Values joined by “and” are separate entries in the source; they are usually repeats but may differ in a detail not shown here. Equal values may be shown once. Inconclusive results are not listed.

Tested on: BDF1 mice, B16 melanoma s.c., survival/tumor T/C
Assay: NCI In Vivo Anticancer Drug Screen. Data for tumor model B16 Melanoma (subcutaneous) in B6D2F1 (BDF1) mice
Method: The antitumor activity of compounds was measured in mice bearing transplantable tumors. Survival or tumor size were measured and the results are expressed as the measurement made in the treated group (T) divided by the measurement made in the vehicle treated control group (C). The tumor model used in this assay is B16 Melanoma (subcutaneous) in B6D2F1 (BDF1) mice

[1] = endpoint: median survival time, dose: 3.0 mg/kg/injection, schedule: Q01DX009 (ip), vehicle: saline, higher = longer survival

CCN(CC)CCCC(C)Nc1c2ccc(Cl)cc2nc2ccc(OC)cc12 (stereo unspecified)
T/C (endpoint: median survival time, dose: 8.0 mg/kg/injection, schedule: Q01DX009 (ip), vehicle: saline with Tween-80, higher = longer survival): 116 % of control
T/C (endpoint: median survival time, dose: 8.0 mg/kg/injection, schedule: Q01DX009 (ip), vehicle: saline, higher = longer survival): 96 % of control
T/C (endpoint: median survival time, dose: 8.0 mg/kg/injection, schedule: Q01DX009 (ip), vehicle: suspension in saline, higher = longer survival): 119 % of control
T/C (endpoint: median survival time, dose: 16.0 mg/kg/injection, schedule: Q01DX009 (ip), vehicle: saline with Tween-80, higher = longer survival): 96 % of control and 118 % of control
T/C (endpoint: median survival time, dose: 16.0 mg/kg/injection, schedule: Q01DX009 (ip), vehicle: saline, higher = longer survival): 100 % of control
T/C (endpoint: median survival time, dose: 16.0 mg/kg/injection, schedule: Q01DX009 (ip), vehicle: suspension in saline, higher = longer survival): 121 % of control
T/C (endpoint: median survival time, dose: 32.0 mg/kg/injection, schedule: Q01DX009 (ip), vehicle: saline with Tween-80, higher = longer survival): 100 % of control and 108 % of control
T/C (endpoint: median survival time, dose: 32.0 mg/kg/injection, schedule: Q01DX009 (ip), vehicle: saline, higher = longer survival): 99 % of control
T/C (endpoint: median survival time, dose: 32.0 mg/kg/injection, schedule: Q01DX009 (ip), vehicle: suspension in saline, higher = longer survival): 116 % of control
T/C (endpoint: median survival time, dose: 64.0 mg/kg/injection, schedule: Q01DX009 (ip), vehicle: saline with Tween-80, higher = longer survival): 102 % of control and 110 % of control
T/C (endpoint: median survival time, dose: 64.0 mg/kg/injection, schedule: Q01DX009 (ip), vehicle: saline, higher = longer survival): 95 % of control
T/C (endpoint: median survival time, dose: 64.0 mg/kg/injection, schedule: Q01DX009 (ip), vehicle: suspension in saline, higher = longer survival): 121 % of control
T/C (endpoint: median survival time, dose: 128.0 mg/kg/injection, schedule: Q01DX009 (ip), vehicle: saline with Tween-80, higher = longer survival): 102 % of control
T/C (endpoint: median survival time, dose: 128.0 mg/kg/injection, schedule: Q01DX009 (ip), vehicle: suspension in saline, higher = longer survival): 119 % of control

O=P(O)(NCCCl)NCCCl
T/C (endpoint: median survival time, dose: 50.0 mg/kg/injection, schedule: Q01DX001 (ip), vehicle: saline, higher = longer survival): 98 % of control
T/C (endpoint: median survival time, dose: 150.0 mg/kg/injection, schedule: Q01DX001 (ip), vehicle: saline, higher = longer survival): 162 % of control

Nc1ccc(N(CCCl)CCN(CCCl)c2ccc(N)cc2)cc1
T/C (endpoint: median survival time, dose: 0.36 mg/kg/injection, schedule: Q01DX009 (ip), vehicle: saline, higher = longer survival): 124 % of control
T/C (endpoint: median survival time, dose: 0.75 mg/kg/injection, schedule: Q01DX009 (ip), vehicle: saline, higher = longer survival): 114 % of control
T/C (endpoint: median survival time, dose: 1.5 mg/kg/injection, schedule: Q01DX009 (ip), vehicle: saline, higher = longer survival): 103 % of control
T/C [1]: 98 % of control

O=C(O)CCC(=O)O
T/C (endpoint: median survival time, dose: 5.0 mg/kg/injection, schedule: Q01DX009 (ip), vehicle: water, higher = longer survival): 117 % of control and 102 % of control
T/C (endpoint: median survival time, dose: 40.0 mg/kg/injection, schedule: Q01DX009 (ip), vehicle: water, higher = longer survival): 114 % of control [middle of 6 runs]
T/C (endpoint: median survival time, dose: 80.0 mg/kg/injection, schedule: Q01DX009 (ip), vehicle: water, higher = longer survival): 97 % of control [middle of 5 runs]
T/C (endpoint: median survival time, dose: 160.0 mg/kg/injection, schedule: Q01DX009 (ip), vehicle: water, higher = longer survival): 96 % of control [middle of 4 runs]

C=C(C)C12OC3(c4ccccc4)OC1C1C4OC4(CO)C(O)C4(O)C(=O)C(C)=CC4C1(O3)C(C)C2OC(=O)/C=C/C=C/c1ccccc1 (stereo unspecified)
T/C (endpoint: median survival time, dose: 6.3 micrograms/kg/injection, schedule: Q01DX009 (ip), vehicle: saline with Tween-80, higher = longer survival): 115 % of control
T/C (endpoint: median survival time, dose: 12.5 micrograms/kg/injection, schedule: Q01DX009 (ip), vehicle: saline with Tween-80, higher = longer survival): 99 % of control
T/C (endpoint: median survival time, dose: 25.0 micrograms/kg/injection, schedule: Q01DX009 (ip), vehicle: saline with Tween-80, higher = longer survival): 115 % of control
T/C (endpoint: median survival time, dose: 50.0 micrograms/kg/injection, schedule: Q01DX009 (ip), vehicle: saline with Tween-80, higher = longer survival): 103 % of control
T/C (endpoint: median survival time, dose: 100.0 micrograms/kg/injection, schedule: Q01DX009 (ip), vehicle: saline with Tween-80, higher = longer survival): 98 % of control

CCO/C=C1\SC(=S)N(c2ccc(C(=O)O)cc2)C1=O
T/C (endpoint: median survival time, dose: 3.12 mg/kg/injection, schedule: Q01DX009 (ip), vehicle: Klucel (hydroxypropylcellulose) (HPC), higher = longer survival): 110 % of control
T/C (endpoint: median survival time, dose: 6.25 mg/kg/injection, schedule: Q01DX009 (ip), vehicle: Klucel (hydroxypropylcellulose) (HPC), higher = longer survival): 101 % of control
T/C (endpoint: median survival time, dose: 12.5 mg/kg/injection, schedule: Q01DX009 (ip), vehicle: Klucel (hydroxypropylcellulose) (HPC), higher = longer survival): 118 % of control
T/C (endpoint: median survival time, dose: 50.0 mg/kg/injection, schedule: Q01DX009 (ip), vehicle: Klucel (hydroxypropylcellulose) (HPC), higher = longer survival): 121 % of control
T/C (endpoint: median survival time, dose: 100.0 mg/kg/injection, schedule: Q01DX009 (ip), vehicle: Klucel (hydroxypropylcellulose) (HPC), higher = longer survival): 121 % of control

OCC1SC(O)C(O)C(O)C1O (stereo unspecified)
T/C (endpoint: median survival time, dose: 500.0 mg/kg/injection, schedule: Q02HX003 (ip), vehicle: saline, higher = longer survival): 104 % of control
T/C (endpoint: median survival time, dose: 500.0 mg/kg/injection, schedule: Q02HX003 (ip), vehicle: water, higher = longer survival): 103 % of control
T/C (endpoint: median survival time, dose: 1000.0 mg/kg/injection, schedule: Q02HX003 (ip), vehicle: saline, higher = longer survival): 89 % of control
T/C (endpoint: median survival time, dose: 1000.0 mg/kg/injection, schedule: Q02HX003 (ip), vehicle: water, higher = longer survival): 95 % of control
T/C (endpoint: median survival time, dose: 1500.0 mg/kg/injection, schedule: Q01DX001 (ip), vehicle: saline, higher = longer survival): 100 % of control
T/C (endpoint: median survival time, dose: 1500.0 mg/kg/injection, schedule: Q01DX001 (ip), vehicle: water, higher = longer survival): 99 % of control
T/C (endpoint: median survival time, dose: 3000.0 mg/kg/injection, schedule: Q01DX001 (ip), vehicle: saline, higher = longer survival): 91 % of control
T/C (endpoint: median survival time, dose: 3000.0 mg/kg/injection, schedule: Q01DX001 (ip), vehicle: water, higher = longer survival): 92 % of control

O=NN(CCF)C(=O)NC1CCSCC1
T/C (endpoint: median survival time, dose: 31.0 mg/kg/injection, schedule: Q01DX001 (ip), vehicle: saline with Tween-80, higher = longer survival): 177 % of control
T/C (endpoint: median survival time, dose: 41.0 mg/kg/injection, schedule: Q01DX001 (ip), vehicle: saline with Tween-80, higher = longer survival): 186 % of control
T/C (endpoint: median survival time, dose: 55.0 mg/kg/injection, schedule: Q01DX001 (ip), vehicle: saline with Tween-80, higher = longer survival): 196 % of control

COc1cccc2c1C(=O)c1c(O)c3c(c(O)c1C2=O)C[C@@](O)(/C(C)=N/NC(=O)c1ccccc1)C[C@@H]3OC1CC(N)C(O)C(C)O1 (stereo partly specified)
T/C [1]: 103 % of control
T/C (endpoint: median survival time, dose: 4.0 mg/kg/injection, schedule: Q01DX009 (ip), vehicle: saline, higher = longer survival): 118 % of control
T/C (endpoint: median survival time, dose: 6.0 mg/kg/injection, schedule: Q01DX009 (ip), vehicle: saline, higher = longer survival): 121 % of control
T/C (endpoint: median survival time, dose: 15.0 mg/kg/injection, schedule: Q04DX003 (ip), vehicle: saline, higher = longer survival): 103 % of control
T/C (endpoint: median survival time, dose: 30.0 mg/kg/injection, schedule: Q01DX001 (ip), vehicle: saline, higher = longer survival): 93 % of control

Cn1c(CCCC(=O)O)nc2cc(N(CCCl)CCCl)ccc21
T/C (endpoint: median survival time, dose: 2.5 mg/kg/injection, schedule: Q01DX009 (ip), vehicle: saline, higher = longer survival): 120 % of control
T/C (endpoint: median survival time, dose: 5.0 mg/kg/injection, schedule: Q01DX009 (ip), vehicle: saline, higher = longer survival): 98 % of control
T/C (endpoint: median survival time, dose: 10.0 mg/kg/injection, schedule: Q01DX009 (ip), vehicle: saline, higher = longer survival): 96 % of control

CC[C@](O)(C(=O)O)c1cc2n(c(=O)c1CO)Cc1cc3ccccc3nc1-2
T/C (endpoint: median survival time, dose: 0.25 mg/kg/injection, schedule: Q01DX009 (ip), vehicle: saline, higher = longer survival): 102 % of control
T/C (endpoint: median survival time, dose: 0.5 mg/kg/injection, schedule: Q01DX009 (ip), vehicle: saline, higher = longer survival): 102 % of control
T/C (endpoint: median survival time, dose: 1.0 mg/kg/injection, schedule: Q01DX009 (ip), vehicle: Klucel (hydroxypropylcellulose) (HPC), higher = longer survival): 104 % of control
T/C (endpoint: median survival time, dose: 2.0 mg/kg/injection, schedule: Q01DX009 (ip), vehicle: Klucel (hydroxypropylcellulose) (HPC), higher = longer survival): 104 % of control
T/C (endpoint: median survival time, dose: 2.0 mg/kg/injection, schedule: Q01DX009 (ip), vehicle: saline, higher = longer survival): 98 % of control

COC(=O)c1csc(-c2csc(CCN)n2)n1
T/C (endpoint: median survival time, dose: 6.25 mg/kg/injection, schedule: Q01DX009 (ip), vehicle: water, higher = longer survival): 89 % of control
T/C (endpoint: median survival time, dose: 12.5 mg/kg/injection, schedule: Q01DX009 (ip), vehicle: water, higher = longer survival): 98 % of control
T/C (endpoint: median survival time, dose: 25.0 mg/kg/injection, schedule: Q01DX009 (ip), vehicle: water, higher = longer survival): 91 % of control
T/C (endpoint: median survival time, dose: 50.0 mg/kg/injection, schedule: Q01DX009 (ip), vehicle: water, higher = longer survival): 117 % of control
T/C (endpoint: median survival time, dose: 100.0 mg/kg/injection, schedule: Q01DX009 (ip), vehicle: water, higher = longer survival): 102 % of control

CC(C)CCC[C@@H](C)[C@H]1CC[C@H]2[C@@H]3CC=C4C[C@@H](O)CC[C@]4(C)[C@H]3CC[C@]12C
T/C (endpoint: median survival time, dose: 12.5 mg/kg/injection, schedule: Q01DX009 (ip), vehicle: other, higher = longer survival): 120 % of control
T/C (endpoint: median survival time, dose: 25.0 mg/kg/injection, schedule: Q01DX009 (ip), vehicle: other, higher = longer survival): 96 % of control
T/C (endpoint: median survival time, dose: 50.0 mg/kg/injection, schedule: Q01DX009 (ip), vehicle: other, higher = longer survival): 119 % of control

Nc1n[nH]c(N)n1
T/C (endpoint: median survival time, dose: 100.0 mg/kg/injection, schedule: Q01DX009 (ip), vehicle: saline with Tween-80, higher = longer survival): 93 % of control
T/C (endpoint: median survival time, dose: 400.0 mg/kg/injection, schedule: Q01DX009 (ip), vehicle: saline with Tween-80, higher = longer survival): 97 % of control
T/C (endpoint: median survival time, dose: 800.0 mg/kg/injection, schedule: Q01DX009 (ip), vehicle: saline with Tween-80, higher = longer survival): 97 % of control
T/C (endpoint: median tumor weight (est.), dose: 100.0 mg/kg/injection, schedule: Q01DX009 (ip), vehicle: saline with Tween-80, higher = larger tumour): 100 % of control
T/C (endpoint: median tumor weight (est.), dose: 800.0 mg/kg/injection, schedule: Q01DX009 (ip), vehicle: saline with Tween-80, higher = larger tumour): 154 % of control
